Results on 31 compounds are retold here after patent US8044052B2, “Biaryl ether urea compounds” (Pfizer Inc., priority 2006, dated 2011).

The test has as its target T1, Human FAAH (Homo sapiens, UniProt O00519).
T1 construct: made in house
T1 sequence (O00519 1-579): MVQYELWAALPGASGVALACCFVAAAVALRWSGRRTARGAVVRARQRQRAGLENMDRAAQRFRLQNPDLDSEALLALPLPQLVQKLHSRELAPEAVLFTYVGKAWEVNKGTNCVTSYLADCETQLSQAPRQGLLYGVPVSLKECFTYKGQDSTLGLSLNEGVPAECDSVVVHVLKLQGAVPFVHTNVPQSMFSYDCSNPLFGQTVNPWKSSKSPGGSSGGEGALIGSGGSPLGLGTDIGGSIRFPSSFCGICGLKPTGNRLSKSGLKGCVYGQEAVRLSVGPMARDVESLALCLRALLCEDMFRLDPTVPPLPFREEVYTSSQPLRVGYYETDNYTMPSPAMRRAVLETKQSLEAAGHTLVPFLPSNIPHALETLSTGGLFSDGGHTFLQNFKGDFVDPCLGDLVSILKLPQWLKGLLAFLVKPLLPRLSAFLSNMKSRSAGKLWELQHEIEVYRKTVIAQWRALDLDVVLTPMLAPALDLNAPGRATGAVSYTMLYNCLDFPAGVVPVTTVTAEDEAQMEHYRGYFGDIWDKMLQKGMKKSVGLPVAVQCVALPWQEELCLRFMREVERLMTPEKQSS
The experiment in a line: FAAH assay (glutamate dehydrogenase-coupled, oleamide substrate, absorbance at 340 nm). The following applies: irreversible inhibition, 1-4 nM FAAH, pH 7.4, 30° C., 90 min, read-out: hFAAH kinact/Ki. Format: biochemical.

Counter-ions that a name gives are not always drawn.

Consider `O=C(Nc1ncccc1O)N1CCC(=Cc2cccc(Oc3ccc(C(F)(F)F)cn3)c2)CC1` [Example 79, N-(3-hydroxypyridin-2-yl)-4-(3-{[5-(trifluoromethyl)pyridin-2-yl]oxy}benzylidene)piperidine-1-carboxamide trifluoroacetate], for which the kinact/KI is 4880 M⁻¹ s⁻¹.
The figure for `Cc1ccnc(NC(=O)N2CCC(=Cc3cccc(Oc4ccc(C(F)(F)F)cn4)c3)CC2)c1` [Example 135, N-(4-methylpyridin-2-yl)-4-(3-{[5-(trifluoromethyl)pyridin-2-yl]oxy}benzylidene)piperidine-1-carboxamide] is 173 M⁻¹ s⁻¹; for `COc1ccc(NC(=O)N2CCC(=Cc3cccc(Oc4ccc(C(F)(F)F)cn4)c3)CC2)nn1` [Example 26, N-(6-methoxypyridazin-3-yl)-4-(3-{[5-(trifluoromethyl)pyridin-2-yl]oxy}benzylidene)piperidine-1-carboxamide] it is 11000 M⁻¹ s⁻¹; for `Cc1noc(NC(=O)N2CCC(=Cc3cccc(Oc4ccc(C(F)(F)F)cn4)c3)CC2)c1C` [Example 2, N-(3,4-dimethylisoxazol-5-yl)-4-(3-{[5-(trifluoromethyl)pyridin-2-yl]oxy}benzylidene)piperidine-1-carboxamide] it is 5050 M⁻¹ s⁻¹.
Then `CCOc1ccc(Oc2cccc(C=C3CCN(C(=O)Nc4cccnc4)CC3)c2)nc1` [Example 47, 4-(3-(5-ethoxypyridin-2-yloxy)benzylidene)-N-(pyridin-3-yl)piperidine-1-carboxamide], with 4490 M⁻¹ s⁻¹; and `O=C(Nc1cccnc1)N1CCC(=Cc2cccc(Oc3ccc(Br)cn3)c2)CC1` [Example 33, 4-{3-[(5-bromopyridin-2-yl)oxy]benzylidene}-N-pyridin-3-ylpiperidine-1-carboxamide], with 26300 M⁻¹ s⁻¹.
Then `O=C(Nc1cccnn1)N1CCC(=Cc2cccc(Oc3ccc(C(F)(F)F)nc3)c2)CC1` [Example 57, 4-(3-(6-(trifluoromethyl)pyridin-3-yloxy)benzylidene)-N-(pyridazin-3-yl)piperidine-1-carboxamide], with 16800 M⁻¹ s⁻¹; and `CCOc1ccc(Oc2cccc(C=C3CCN(C(=O)Nc4cccnn4)CC3)c2)nc1` [Example 48, 4-(3-(5-ethoxypyridin-2-yloxy)benzylidene)-N-(pyridazin-3-yl)piperidine-1-carboxamide], with 5830 M⁻¹ s⁻¹.
Take `Cc1ccc(NC(=O)N2CCC(=Cc3cccc(Oc4ccc(C(F)(F)F)cc4)c3)CC2)cn1` [Example 56, 4-(3-(4-(trifluoromethyl)phenoxy)benzylidene)-N-(6-methylpyridin-3-yl)piperidine-1-carboxamide]: the kinact/KI was 3580 M⁻¹ s⁻¹.
Then `O=C(Nc1cccnc1)N1CCC(=Cc2cccc(Oc3ncc(Br)cn3)c2)CC1` [Example 36, 4-(3-(5-bromopyrimidin-2-yloxy)benzylidene)-N-(pyridin-3-yl)piperidine-1-carboxamide], with 5070 M⁻¹ s⁻¹; and `Cc1noc(NC(=O)N2CCC(=Cc3cccc(Oc4ccc(F)cc4)c3)CC2)c1C` [Example 19, N-(3,4-dimethylisoxazol-5-yl)-4-[3-(4-fluorophenoxy)benzylidene]piperidine-1-carboxamide], with 3450 M⁻¹ s⁻¹; and `Cn1ccc(NC(=O)N2CCC(=Cc3cccc(Oc4ccc(C(F)(F)F)cn4)c3)CC2)n1` [Example 77, N-(1-methyl-1H-pyrazol-3-yl)-4-(3-{[5-(trifluoromethyl)pyridin-2-yl]oxy}benzylidene)piperidine-1-carboxamide], with 339 M⁻¹ s⁻¹.
Then `O=C(Nc1cccnn1)N1CCC(=Cc2cccc(Oc3ccc(C(F)(F)F)cc3)c2)CC1` [Example 54, 4-(3-(4-(trifluoromethyl)phenoxy)benzylidene)-N-(pyridazin-3-yl)piperidine-1-carboxamide], with 12000 M⁻¹ s⁻¹; and `COc1ccc(-c2cnc(Oc3cccc(C=C4CCN(C(=O)Nc5cccnn5)CC4)c3)nc2)cc1` [Example 104, 4-(3-{[5-(4-methoxyphenyl)pyrimidin-2-yl]oxy}benzylidene)-N-pyridazin-3-ylpiperidine-1-carboxamide], with 105 M⁻¹ s⁻¹.
As to `O=C(Nc1ccc(Oc2cccnc2)nc1)N1CCC(=Cc2cccc(Oc3ccc(C(F)(F)F)cn3)c2)CC1` [Example 128, N-[6-(pyridin-3-yloxy)pyridin-3-yl]-4-(3-{[5-(trifluoromethyl)pyridin-2-yl]oxy}benzylidene)piperidine-1-carboxamide], the kinact/KI was 1300 M⁻¹ s⁻¹.
In the case of `O=C(Nc1cccnn1)N1CCC(=Cc2cc(Br)cc(Oc3ccc(C(F)(F)F)cn3)c2)CC1` [Example 63, 4-(3-bromo-5-(5-(trifluoromethyl)pyridin-2-yloxy)benzylidene)-N-(pyridazin-3-yl)piperidine-1-carboxamide], the kinact/KI came to 2530 M⁻¹ s⁻¹.
Then `Cc1ccnc(Oc2cccc(C=C3CCN(C(=O)Nc4cccnn4)CC3)c2)c1` [Example 73, 4-{3-[(4-methylpyridin-2-yl)oxy]benzylidene}-N-pyridazin-3-ylpiperidine-1-carboxamide], with 963 M⁻¹ s⁻¹; and `N#Cc1ccc(NC(=O)N2CCC(=Cc3cccc(Oc4ccc(C(F)(F)F)cn4)c3)CC2)cn1` [Example 11, N-(6-cyanopyridin-3-yl)-4-(3-{[5-(trifluoromethyl)pyridin-2-yl]oxy}benzylidene)piperidine-1-carboxamide hydrochloride], with 4040 M⁻¹ s⁻¹.
Then `O=C(Nc1cnc(-c2ccccc2)cn1)N1CCC(=Cc2cccc(Oc3ccc(C(F)(F)F)cn3)c2)CC1` [Example 21, N-(5-phenyl-pyrazin-2-yl)-4-(3-{[5-(trifluoromethyl)pyridin-2-yl]oxy}benzylidene)piperidine-1-carboxamide], with 1850 M⁻¹ s⁻¹; and `Cc1nc2c(c(Oc3cccc(C=C4CCN(C(=O)Nc5cccnn5)CC4)c3)n1)CCN(C)C2` [Example 114, 4-{3-[(2,7-dimethyl-5,6,7,8-tetrahydropyrido[3,4-d]pyrimidin-4-yl)oxy]benzylidene}-N-pyridazin-3-ylpiperidine-1-carboxamide], with < 10 M⁻¹ s⁻¹; and `O=C(Nc1cc(CO)ccn1)N1CCC(=Cc2cccc(Oc3ccc(C(F)(F)F)cn3)c2)CC1` [Example 83, N-[4-(hydroxymethyl)pyridin-2-yl]-4-(3-{[5-(trifluoromethyl)pyridin-2-yl]oxy}benzylidene)piperidine-1-carboxamide trifluoroacetate], with 356 M⁻¹ s⁻¹.
Take `O=C(Nc1cccnn1)N1CCC(=Cc2cccc(Oc3nc4ccccc4s3)c2)CC1` [Example 124, 4-[3-(1,3-benzothiazol-2-yloxy)benzylidene]-N-pyridazin-3-ylpiperidine-1-carboxamide]: the kinact/KI was found to be 7400 M⁻¹ s⁻¹.
The figure for `N#Cc1ccc(Oc2cccc(C=C3CCN(C(=O)Nc4cccnc4)CC3)c2)nc1` [Example 30, 4-(3-(5-cyanopyridin-2-yloxy)benzylidene)-N-(pyridin-3-yl)piperidine-1-carboxamide] is 3540 M⁻¹ s⁻¹; for `O=C(Nc1cccnc1)N1CCC(=Cc2cccc(Oc3ccc(C4CC4)cn3)c2)CC1` [Example 38, 4-(3-(5-cyclopropylpyridin-2-yloxy)benzylidene)-N-(pyridin-3-yl)piperidine-1-carboxamide] it is 9180 M⁻¹ s⁻¹.
The figure for `O=C(Nc1cccnc1)N1CCC(=Cc2ccc(Cl)c(Oc3ccc(C(F)(F)F)cn3)c2)CC1` [Example 59, 4-(4-chloro-3-(5-(trifluoromethyl)pyridin-2-yloxy)benzylidene)-N-(pyridin-3-yl)piperidine 1-carboxamide] is 260 M⁻¹ s⁻¹.
Then `O=C(Nc1cccnc1)N1CCC(=Cc2cccc(Oc3ccc(OCC(F)(F)F)cn3)c2)CC1` [Example 49, 4-(3-(5-(2,2,2-trifluoroethoxy)pyridin-2-yloxy)benzylidene)-N-(pyridin-3-yl)piperidine-1-carboxamide], with 6560 M⁻¹ s⁻¹; and `Cc1nccnc1NC(=O)N1CCC(=Cc2cccc(Oc3ccc(C(F)(F)F)cn3)c2)CC1` [Example 24, N-(3-methylpyrazin-2-yl)-4-(3-{[5-(trifluoromethyl)pyridin-2-yl]oxy}benzylidene)piperidine-1-carboxamide], with 2410 M⁻¹ s⁻¹; and `Cn1cc(NC(=O)N2CCC(=Cc3cccc(Oc4ccc(C(F)(F)F)cn4)c3)CC2)cn1` [Example 137, N-(1-methyl-1H-pyrazol-4-yl)-4-(3-{[5-(trifluoromethyl)pyridin-2-yl]oxy}benzylidene)piperidine-1-carboxamide], with 1070 M⁻¹ s⁻¹.
For `O=C(Nc1onc2ccccc12)N1CCC(=Cc2cccc(Oc3ccc(F)cc3)c2)CC1` [Example 18, N-2,1-benzisoxazol-3-yl-4-[3-(4-fluorophenoxy)benzylidene]piperidine-1-carboxamide], the kinact/KI is 2730 M⁻¹ s⁻¹.
Then `O=C(Nc1cccnn1)N1CCC(=Cc2cccc(Oc3ncccn3)c2)CC1` [Example 103, N-pyridazin-3-yl-4-[3-(pyrimidin-2-yloxy)benzylidene]piperidine-1-carboxamide], with 162 M⁻¹ s⁻¹.
Regarding `O=C(Nc1cccnn1)N1CCC(=Cc2cc(Oc3ccc(C(F)(F)F)cn3)cc(C3CC3)c2)CC1` [Example 64, 4-(3-cyclopropyl-5-(5-(trifluoromethyl)pyridin-2-yloxy)benzylidene)-N-(pyridazin-3-yl)piperidine-1-carboxamide], the kinact/KI came to 417 M⁻¹ s⁻¹.
